Values after ≈ are worked out from the molar mass of the structure shown. Counter-ions that a name gives are not always drawn.

For one series, the system named is CCC-ESF cells. It counts as cell-based, human. The following applies: 30 min pre-incubation with inhibitor, vs. control. The method, then:
(§1) Endocytosis mechanisms were assessed using cellular uptake assays in the presence of chemicals known to inhibit specific endocytosis pathways. Cells were incubated with CPZ, FLP, GNT, CCD, DMA, NaN3, or MS (at […], respectively) for 30 min at 37°C. After exposure to these inhibitors, 200 µL of C6-labeled NLCs was added to each well and incubated for 30 min. After the incubation, cells were prepared for flow cytometry as described earlier and the data for at least 20,000 cells were acquired. The cells treated with C6-labeled NLCs alone were considered as the control cells.

The next series concerns HaCaT cells. Put plainly: Endocytic pathway: uptake of C6-labeled NLCs in presence of endocytosis inhibitors. It counts as cell-based, human. The settings on record: 30 min pre-incubation with inhibitor, vs. control. The method, then:
as §1

The subject of a further series is mice. Further details: method as in ref 5 = [5]; 5. Guan YZ Shi YB Wang H Summary on the advanced research of lappaconite hydrobromide Theory Pr Chin Med 2005 15 1838 1840. The following applies: cited from earlier work.
For another series, the system named is rats. Set-up: method as in ref 5 = [5]; 5. Guan YZ Shi YB Wang H Summary on the advanced research of lappaconite hydrobromide Theory Pr Chin Med 2005 15 1838 1840. The settings on record: cited from earlier work.
A short description of series [1]: Aqueous solubility in the release medium. It counts as physicochemical. The following applies: normal saline containing 20% PEG 400.
Details of series [2]: method as in ref 6 = [6]; 6. Liang ZF Lyu YP Yuan W Liu YL Zhu XC Dose-effect relationship of lappaconitine Chin Pharmacol Bull 1993 9 146. The settings on record: per os; cited from earlier work.

Consider `C=C1[C@@H](C)[C@H]2[C@H](Cc3ccccc3)NC(=O)[C@]23[C@H](OC(C)=O)/C=C/[C@@](C)(O)C(=O)[C@@H](C)C/C=C/[C@H]3[C@@H]1O` [CCD, cytochalasin D], for which the “effect on internalization/uptake of C6-labeled NLCs” value (“effect on internalization/uptake” below) with CCC-ESF cells is reported as “significantly inhibited”.

With `CN(C)CCCN1c2ccccc2Sc2ccc(Cl)cc21` [CPZ, chlorpromazine], in the series with CCC-ESF cells, the “effect on internalization/uptake” value is “did not significantly affect”.

As for `CN(C)c1nc(N)c(C(=O)NC(=N)N)nc1Cl` [DMA, 5-(N,N-dimethyl)-amiloride hydrochloride], the “effect on internalization/uptake” value in the series with CCC-ESF cells is “did not significantly affect”.

For the compound `CCCCC[C@@H](O)[C@H]1C(=O)O[C@H](C)[C@@H](O)/C=C/C=C/C=C/C=C/C=C(\C)[C@@H](O)C[C@H](O)C[C@H](O)C[C@H](O)C[C@H](O)C[C@H](O)C[C@@H]1O` [FLP, filipin III], in the series with HaCaT cells, the “effect on uptake of C6-labeled NLCs (average fluorescence intensity)” value is “significantly reduced”. Also, the “effect on internalization/uptake” value in the series on CCC-ESF cells is “significantly inhibited”.

`O=c1c(-c2ccc(O)cc2)coc2cc(O)cc(O)c12` [GNT, genistein]: the “effect on internalization/uptake” value in the series on CCC-ESF cells is listed as “did not significantly affect”.

In the case of `CCN1C[C@]2(OC(=O)c3ccccc3NC(C)=O)CC[C@H](OC)[C@@]34[C@@H]2C[C@@H]([C@@H]13)[C@@]1(O)C[C@H](OC)[C@H]2C[C@@H]4[C@]1(O)[C@H]2OC` [LA, lappaconitine], in the series on mice, the “oral LD50” value was 32.4 mg/kg. Besides, in the series on rats, the “oral LD50” value was 20 mg/kg. Moreover, the “aqueous solubility in the medium” value in series [1] was 849.79 ± 36.95 µg/mL (≈ 1450 µM). Also, in series [2], the “certain safety factor (CSF)” value was 1.01 and the “standard safety margin (SSM)” value was 1.0%.

Take `[N-]=[N+]=[N-].[Na+]` [NaN3, sodium azide]: in the series on CCC-ESF cells, the “effect on internalization/uptake” value is “did not significantly affect”.

As to `CCN1C[C@]2(OC(=O)c3ccccc3NC(C)=O)CC[C@H](OC)C34C1C(O)(C[C@@H]32)[C@@]1(O)C[C@H](OC)[C@H]2C[C@@H]4[C@]1(O)[C@H]2OC` [RAN, ranaconitine], the “aqueous solubility in the medium” value in series [1] came to 582.06 ± 16.27 µg/mL (≈ 969 µM).

Consider monensin sodium [MS], for which the “effect on internalization/uptake” value in the series on CCC-ESF cells is “did not significantly affect”.

Values taken from publication PMC4496826, “Nanostructured lipid carriers for percutaneous administration of alkaloids isolated from Aconitum sinomontanum” (Journal of Nanobiotechnology, 2015).
